Series [1] deals with Ba/F3-TPM3-NTRK1-G667C cells. The experiment in a line: Growth inhibition of Ba/F3-TPM3-NTRK1-G667C cells (Cell Titer-Glo). It counts as cell-based. To be noted: 72 hours, CTG; read-out: inhibitory activity IC50 Ba/F3-TPM3-NTRK1-G667C. The method in brief: (§1)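 Ba/F3 cells were exposed for 72 hours to serially DMSO-diluted compound at a top final concentration of 10 μM. Viability was read by Cell Titer-Glo luminescence after the plate equilibrated 30 min at room temperature and was then shaken 1 hour in the dark at room temperature.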

For the next series, the target named is TRKA^F589L kinase (Homo sapiens (Human), UniProt P04629, F589L). Kind of series: Inhibitory activity against TRKA(F589L) kinase (Caliper mobility shift). It counts as biochemical. To be noted: in vitro kinase assay. How it is done: Kinase Assay Process: 1× Kinase buffer was prepared. […] The compounds were serially diluted into 10 concentrations ([…], 0.15, and 0.05 nM) using a Precision 3-fold dilution method. By using the Echo550 liquid handler, 250 nL of the 100-fold final concentration compound was transferred to an OptiPlate-384F plate. a 2.5× final concentration kinase solution was prepared using 1× Kinase buffer. 10 μL of the 2.5× final concentration kinase solution was added to the compound wells and the positive control wells, and 10 μL of 1× Kinase buffer was added to the negative control wells. The plate was centrifuged at 1000 rpm for 30 seconds, vortexed for mixing, and then incubated at room temperature for 10 minutes. A mixture of 5/3× final concentration of ATP and Kinase Substrate 22 was prepared using 1× Kinase buffer. 15 μL of the mixture of the 5/3× final concentration ATP and the substrate was added to initiate the reaction, the 384-well plate was centrifuged at 1000 rpm for 30 seconds, vortexed for mixing, and incubated at room temperature for the required time. 30 μL of the termination solution was added to stop the kinase reaction, the plate was centrifuged at 1000 rpm for 30 seconds, and vortexed for mixing. The conversion rate was measured using the Caliper EZ Reader.
Data Analysis: the inhibition rate was calculated as follows:
% Inhibition=(Conversion %_max−conversion %_sample)÷(Conversion %_max−conversion %_min)×100
Conversion %_sample is the conversion rate reading for the sample; Conversion %_min is the average value of the negative control wells, representing the conversion rate for wells without enzyme activity: Conversion %_max is the average value of the positive control wells, representing the conversion rate for wells without compound inhibition. A dose-response curve was fitted using the log concentration of the compound as the X-axis and the percentage inhibition as the Y-axis. The log(inhibitor) vs. response-variable slope of the GraphPad Prism 5 software was used to fit the dose-response curve, and the IC50 value for each compound was obtained. The calculation formula is:
Y=Bottom+(Top−Bottom)/(1+10^((Log IC50−X)*HillSlope)).
wherein X represents the concentration of the compound to be tested; Y represents the inhibition rate at the concentration X: Top refers to the maximum response: Bottom refers to the baseline response; HillSlope refers to the slope of the curve (i.e., the gradient).

The target of a further series is TRKA^WT kinase (Homo sapiens (Human), UniProt P04629). The experiment in a line: Inhibitory activity against TRKA WT kinase (Caliper mobility shift). It counts as biochemical. To be noted: in vitro kinase assay. Put shortly: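 Kinase preincubated 10 min at room temperature with compound (10-point 3-fold series from 1000 nM), then reaction started with ATP and Kinase Substrate 22. Substrate conversion read by Caliper mobility shift; IC50 from variable-slope log(inhibitor)–response fit of % inhibition versus no-enzyme and no-compound controls.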

The conditions of series [2]: ether bond.
The test system of series [3] is Ba/F3-TPM3-NTRK1-WT cells. Kind of series: Growth inhibition of Ba/F3-TPM3-NTRK1-WT cells (Cell Titer-Glo). It counts as cell-based. To be noted: 72 hours, CTG; read-out: inhibitory activity IC50 Ba/F3-TPM3-NTRK1-WT. Put shortly: as §1
The subject of series [4] is Ba/F3-TPM3-NTRK1-G595R cells. The experiment in a line: Growth inhibition of Ba/F3-TPM3-NTRK1-G595R cells (Cell Titer-Glo). It counts as cell-based. To be noted: 72 hours, CTG; read-out: inhibitory activity IC50 Ba/F3-TPM3-NTRK1-G595R. Put shortly: as §1
Series [5] concerns Ba/F3-TPM3-NTRK1-G667C subcutaneous xenograft. Kind of series: Efficacy in Ba/F3-TPM3-NTRK1-G667C subcutaneous xenograft tumor model. It counts as in vivo, NOD-SCID mice. To be noted: 10 mg/kg oral BID. On the procedure:
Cell Culture: Ba/F3-TPM3-NTRK1-G667C cells were cultured in RPMI 1640 medium containing 10% FBS. Log-phase cells were collected, and the total number of cells required was calculated. Cells were resuspended in an appropriate volume of PBS mixture solution (PBS:Matrigel=1:1, v/v) at a concentration of 5×10^6 cells/0.1 mL for subcutaneous inoculation into the right flank of NOD-SCID mice.
Method: at Day 0, all animals were subcutaneously inoculated with 0.1 mL (5×10^6 cells) of Ba/F3-TPM3-NTRK1-G667C cell suspension (PBS:Matrigel=1:1, v/v) on the right flank. When the tumors reached an average volume of 197.2 mm^3, dosing and grouping began. […] The animals were divided into two groups: Group 1: Vehicle control; Group 2: 10 mg/kg of compound 1-52. Each group contained six mice. All groups were administered orally via gavage twice daily (BID) for 29 days.
Tumor Volume Inhibition Rate TGITV(%): TGI %=(1−ΔT/ΔC)×100%; Where: ΔC is the tumor volume Ct−C0 of the control group, C0 is the average tumor volume of the control group at the time of grouping, Ct is the average tumor volume of the control group after treatment, ΔT is the tumor volume Tt−T0 of the treatment group, To is the average tumor volume of the […] after treatment.
Pharmacological activity was evacuated based on tumor suppression rate (TGITV), and tolerance was assessed based on changes in animal weight and mortality.

For series [6], the system named is Ba/F3-TPM3-NTRK1-WT subcutaneous xenograft. The experiment in a line: Efficacy in Ba/F3-TPM3-NTRK1-WT subcutaneous xenograft tumor model. It counts as in vivo, NOD-SCID mice. On the procedure:
Cell culture: Ba/F3-TPM3-NTRK1-WT cells were cultured in RPMI 1640 medium containing 10% FBS. Ba/F3-TPM3-NTRK1-WT cells in logarithmic growth phase were collected, the required total number of cells was calculated, and the cells were resuspended in a suitable volume of PBS mixture (PBS:Matrigel=1:1 (v/v)) with a cell suspension concentration of 5×106/0.1 mL for subcutaneous inoculation on the right side of NOD-SCID mice.
Method: On Day 0, all animals were subcutaneously inoculated with 0.1 mL (5×10^6 Ba/F3-TPM3-NTRK1-WT cells) of cell suspension (PBS:Matrigel=1:1, VN) on the right back. After the tumor growed to an average volume of 178.3 mm3, the mice were grouped and administrated. The average tumor volume of the enrolled animals is 178.3 mm^3. The mice were divided into two groups. Group-1 (Vehicle) and Group-2 (10 mg/kg, I-52). Each group consisted of 6 animals. All groups were administered orally by gavage with a frequency of BID, for a total of 29 days.
Tumor volume inhibition rate TGITV (%): TGI %=(1−ΔT/ΔC)×100%, wherein ΔC is the tumor volume Ct−C0 of the control group, C0 is the average tumor volume of the control group at the time of grouping, Ct is the average tumor volume of the control group after treatment, ΔT is the tumor volume Tt−T0 of the treatment group, T0 is the average tumor volume of the […] after treatment.
Pharmacological activity was evaluated based on tumor suppression rate (TGITV), and tolerance was evaluated based on changes in animal weight and mortality.

Like-named read-outs stand apart in the source and are kept apart here.

Sequence of TRKA^WT kinase (P04629 33-796): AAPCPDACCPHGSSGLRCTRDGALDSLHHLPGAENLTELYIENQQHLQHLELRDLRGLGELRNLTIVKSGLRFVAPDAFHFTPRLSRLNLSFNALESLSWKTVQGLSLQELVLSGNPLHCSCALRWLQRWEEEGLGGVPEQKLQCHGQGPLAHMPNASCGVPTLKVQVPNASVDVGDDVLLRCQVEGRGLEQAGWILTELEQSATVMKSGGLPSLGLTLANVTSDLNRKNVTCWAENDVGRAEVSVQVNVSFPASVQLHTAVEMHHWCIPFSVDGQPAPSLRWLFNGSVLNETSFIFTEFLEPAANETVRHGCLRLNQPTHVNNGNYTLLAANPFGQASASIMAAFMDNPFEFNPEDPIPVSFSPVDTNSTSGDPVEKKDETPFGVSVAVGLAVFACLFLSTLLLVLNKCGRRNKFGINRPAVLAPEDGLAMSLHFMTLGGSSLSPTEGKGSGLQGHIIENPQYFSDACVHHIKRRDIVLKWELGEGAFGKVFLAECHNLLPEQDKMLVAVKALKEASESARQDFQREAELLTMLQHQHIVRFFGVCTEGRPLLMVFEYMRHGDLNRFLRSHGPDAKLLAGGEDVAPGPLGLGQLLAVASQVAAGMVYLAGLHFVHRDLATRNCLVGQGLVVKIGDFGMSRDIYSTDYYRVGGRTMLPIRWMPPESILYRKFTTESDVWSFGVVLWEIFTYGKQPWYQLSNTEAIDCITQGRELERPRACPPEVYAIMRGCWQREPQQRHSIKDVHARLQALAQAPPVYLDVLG
Sequence of TRKA^F589L kinase (P04629 33-796 F589L): as the sequence (P04629 33-796) above, with F557L counted along it

As for `CC1Nc2ccc3ncc(n3n2)-c2cc(ccn2)COc2ccc(F)cc21` (stereo not shown) [Example I-1, (E)-5^4-fluoro-6-methyl-4-oxa-7-aza-1(3,6)-imidazo[1,2-b]pyridazina-2(2,4)-pyridina-5(1,2)-benzenacycloheptaphane], the IC50 in series [1] was found to be 91.2 nM; on TRKA^F589L kinase, 5.4 nM; on TRKA^WT kinase, 2.57 nM; in series [3] it was 3.66 nM; in series [4] it was 72.2 nM. The same molecule had a ring closure, isolated yield in series [2] (from CC(Nc1ccc2ncc(-c3cc(CO)ccn3)n2n1)c1cc(F)ccc1O, 13-membered ring, SOCl2, K2CO3, DCM/DMF, 15.2 mM, 90.0 °C, 2.0 h, 2 steps) of 11.3%.
Consider `CC1Nc2ccc3ncc(n3n2)-c2cc(ccn2)COc2ncccc21` (stereo not shown) [Example I-4, (E)-6-methyl-4-oxa-7-aza-1(3,6)-imidazo[1,2-b]pyridazina-2(2,4), 5(2,3)-dipyridinacycloheptaphane], for which the results for the IC50 (in series [1]; on TRKA^F589L kinase; at TRKA^WT kinase) were < 100 nM, 5.8 nM and < 3 nM, respectively. In series [2] (from CC(Nc1ccc2ncc(-c3cc(CO)ccn3)n2n1)c1cccnc1O, 13-membered ring, SOCl2, K2CO3, DCM/DMF, 22.0 mM, 90.0 °C, 2.0 h, 2 steps), this molecule had a ring closure, isolated yield of 30.2%.
`CC1Nc2ccc3ncc(n3n2)-c2cc(ccn2)OCc2ncc(F)cc21` (stereo not shown) [Example I-12, (E)-5^5-fluoro-6-methyl-3-oxa-7-aza-1(3,6)-imidazo[1,2-b]pyridazina-2(2,4), 5(2,3)-dipyridinacycloheptaphane]: the IC50 in series [1] was < 100 nM. Besides, the ring closure, isolated yield in series [2] (from CC(Nc1ccc2ncc(-c3cc(O)ccn3)n2n1)c1cc(F)cnc1CO, 13-membered ring, SOCl2, then K2CO3, DCM/DMF, then DMF (DCM evaporated), 15.7 mM, 90.0 °C, 2.0 h, 2 steps) came to 22.6%.
Regarding `Fc1cnc2c(c1)[C@H]1C[C@H](F)CN1c1ccc3ncc(n3n1)-c1cc(ccn1)CO2` [Example I-52, (14bR,16S,E)-13,16-difluoro-14b,15,16,17-tetrahydro-9H-1,19-etheno-4,8-(metheno)imidazo[1,5-h]pyrido[2,3-b]pyrrolo[2,1-d][1]oxa[5,7,8,11]tetraazacyclopentadecine], the IC50 in series [1] worked out at 0.88 nM; in series [3], 0.02 nM; in series [4], 0.3 nM. For the same molecule, the “Average Body Weight” value was 19.1 g in series [5] (Day 2); 20.9 g in series [5] (Day 7); 21.0 g in series [5] (Day 9); 21.8 g in series [5] (Day 11); 22.0 g in series [5] (Day 13); 22.8 g in series [5] (Day 15). Further, the “Average Body Weight” value in series [5] (Day 17) was 23.0 g; in series [5] (Day 19), 23.7 g; in series [5] (Day 21) it was 23.3 g; in series [5] (Day 23), 24.3 g; in series [5] (Day 25) it was 24.7 g; in series [5] (Day 27), 25.3 g. Also, the “Average Body Weight” value in series [5] (Day 29) was found to be 24.6 g. For the same molecule, in series [5] (Day 29), the “Relative Tumor Volume (average)” value stood at 308.6%. Besides, the TGITV in series [5] (Day 29) is on record as 84%; in series [6] (Day 29, 10 mg/kg oral BID), 112%. Moreover, the “Tumor Volume (average)” value in series [5] (Day 29) is listed as 636.5 mm^3; in series [6] (Day 29, 10 mg/kg oral BID) it was 0.0 mm^3. The “Average Tumor Volume” value in series [6] (Day 4, 10 mg/kg oral BID) came out at 182.5 mm^3; in series [6] (Day 6, 10 mg/kg oral BID), 192.7 mm^3; in series [6] (Day 8, 10 mg/kg oral BID), 176.5 mm^3; in series [6] (Day 10, 10 mg/kg oral BID), 146.3 mm^3; in series [6] (Day 12, 10 mg/kg oral BID), 113.1 mm^3; in series [6] (Day 14, 10 mg/kg oral BID), 74.4 mm^3. In addition, the “Average Tumor Volume” value in series [6] (Day 15, 10 mg/kg oral BID) was determined as 67.9 mm^3; in series [6] (Day 17, 10 mg/kg oral BID), 60.1 mm^3; in series [6] (Day 19, 10 mg/kg oral BID), 32.8 mm^3; in series [6] (Day 21, 10 mg/kg oral BID), 0.0 mm^3; in series [6] (Day 23, 10 mg/kg oral BID), 0.0 mm^3; in series [6] (Day 25, 10 mg/kg oral BID) it was 0.0 mm^3. Moreover, the “Average Tumor Volume” value in series [6] (Day 27, 10 mg/kg oral BID) turned out to be 0.0 mm^3; in series [6] (Day 29, 10 mg/kg oral BID (Table 7)) it was 0.0 mm^3. In addition, in series [6] (Day 29, 10 mg/kg oral BID), the “Tumor Regression Rate” value was 100%.
Take “(E)-4-methyl-6-oxa-3-aza-2(3,6)-imidazo [1,2-b]pyridazina-1(2,4)-pyridina-5(1,2)-benzenacyclooctaphane”: the ring closure, isolated yield in series [2] (14-membered ring, PPh3/DIAD, THF, 15.8 mM, 60.0 °C) was determined as 18.4%.

The record behind these values is patent US20260028352A1, “MACROCYCLIC IMIDAZO [1,2-B] PYRIDAZINE DERIVATIVE, PREPARATION METHOD THEREFOR, AND USE THEREOF” (SUZHOU LANGRUI BIOPHARMACEUTICAL CO., LTD., priority 2022, published 2026).
